Assay results from patent publication US10597388B2, “Pyridazinone herbicides” (FMC CORPORATION, priority 2014, dated 2020).

Columns and labels:
Assay type in all cases: in vivo
[1] = tested on: ducksalad (Heteranthera limosa); assay: Test B flooded paddy test; conditions: 250 g ai/ha, Flood; visual rating on scale of 0 to 100 where 0 is no effect and 100 is complete control; 13 to 15 d after treatment
In short: (§1)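 Ratings use a 0-100 visual scale, where 100 is complete control, and compare treated plants with controls after 13 to 15 d of greenhouse growth. Compound went straight into paddy water kept 3 cm over the soil surface, applied to seedlings at the 2-leaf stage.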

[2] = tested on: barnyardgrass (Echinochloa crus-galli); assay: Test B flooded paddy test; conditions: 250 g ai/ha, Flood; visual rating on scale of 0 to 100 where 0 is no effect and 100 is complete control; 13 to 15 d after treatment
In short: as §1

[3] = tested on: sedge, umbrella (small-flower umbrella sedge, Cyperus difformis); assay: Test B flooded paddy test; conditions: 250 g ai/ha, Flood; visual rating on scale of 0 to 100 where 0 is no effect and 100 is complete control; 13 to 15 d after treatment
In short: as §1

[4] = tested on: rice (Oryza sativa); assay: Test B flooded paddy test; conditions: 250 g ai/ha, Flood; visual rating on scale of 0 to 100 where 0 is no effect and 100 is complete control; 13 to 15 d after treatment
In short: as §1

[5] = tested on: barnyardgrass (Echinochloa crus-galli); assay: Test A greenhouse herbicide test, pre- and postemergence
In short: (§2)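 Visual injury ratings, 0 (no effect) to 100 (complete control), versus untreated plants after roughly 10 d in a greenhouse. Compounds, formulated in a surfactant-containing non-phytotoxic solvent, were sprayed on loam–sand soil after sowing (pre) or on one- to two-leaf plants 2–10 cm tall (post).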

[6] = tested on: foxtail, giant (giant foxtail, Setaria faberii); assay: as above
In short: as §2

[7] = tested on: corn (Zea mays); assay: as above; conditions: Postemergence
In short: as §2

[8] = tested on: ragweed (common ragweed, Ambrosia elatior); assay: as above
In short: as §2

[9] = tested on: ryegrass, Italian (Italian ryegrass, Lolium multiflorum); assay: as above
In short: as §2

[10] = tested on: pigweed (Amaranthus retroflexus); assay: as above
In short: as §2

[11] = tested on: wheat (Triticum aestivum); assay: as above; conditions: Postemergence
In short: as §2

[12] = tested on: kochia (Kochia scoparia); assay: as above
In short: as §2

[13] = tested on: blackgrass (Alopecurus myosuroides); assay: Test A greenhouse herbicide test, postemergence
In short: (§3)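 Scores are visual injury ratings from 0 (no effect) to 100 (complete control) versus untreated plants, taken roughly 10 d after treatment in the greenhouse. Treatment was postemergence, on one- to two-leaf plants 2–10 cm high growing in a loam soil/sand mix.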

[14] = tested on: galium (catchweed bedstraw, Galium aparine); assay: Test A greenhouse herbicide test, postemergence
In short: as §3

[15] = Postemergence, 125 g ai/ha, 0 to 100 scale where 0 is no effect and 100 is complete control
[16] = Postemergence, 500 g ai/ha, 0 to 100 scale, 0 is no effect, 100 is complete control
[17] = Preemergence, 125 g ai/ha, 0 to 100 scale where 0 is no effect and 100 is complete control
[18] = Preemergence, 500 g ai/ha, 0 to 100 scale, 0 no effect, 100 complete control
[19] = 125 g ai/ha, 0 to 100 scale where 0 is no effect and 100 is complete control
[20] = 500 g ai/ha, 0 to 100 scale, 0 is no effect, 100 is complete control
[21] = Postemergence, 125 g ai/ha, 0 to 100 scale, 0 no effect, 100 complete control
[22] = Postemergence, 500 g ai/ha, visual rating after approx. 10 d, 0 to 100 scale (0 no effect, 100 complete control)
[23] = Preemergence, 125 g ai/ha, visual injury rating, 0 to 100 scale (0 no effect, 100 complete control), approx. 10 d
[24] = Preemergence, 500 g ai/ha, 0 to 100 scale where 0 is no effect and 100 is complete control
[25] = 125 g ai/ha, 0 to 100 scale, 0 no effect, 100 complete control
[26] = 500 g ai/ha, visual rating after approx. 10 d, 0 to 100 scale (0 no effect, 100 complete control)

`CCC(=O)Oc1c(C)nn(C)c(=O)c1-c1ccc(Cl)c2ccccc12` [Compound 62] was tested, and the “Plant response rating, Ducksalad” value [1] was 20, the “Plant response rating, Barnyardgrass” value [2] was 20 and the “Plant response rating, Sedge, Umbrella” value [3] was 75. For the same compound, the “Plant response rating, Rice” value [4] was 0, the “Plant response rating, Barnyardgrass” value [5, 15] was 70 and the “Barnyardgrass plant response rating” value [5, 16] was 90. The “Barnyardgrass plant response rating” value [5, 17] was 50, the “Plant response rating, Barnyardgrass” value [5, 18] was 90 and the “Plant response rating, Foxtail, Giant” value [6, 15] was 80. For the same compound, the “Foxtail, Giant plant response rating” value [6, 16] was 90, the “Foxtail, Giant plant response rating” value [6, 17] was 50 and the “Plant response rating, Foxtail, Giant” value [6, 18] was 90. The “Plant response rating, Corn” value [7, 19] was 10, the “Corn plant response rating” value [7, 20] was 30 and the “Plant response rating, Ragweed” value [8, 15] was 100. For the same compound, the “Ragweed plant response rating” value [8, 16] was 100, the “Ragweed plant response rating” value [8, 17] was 70 and the “Plant response rating, Ragweed” value [8, 18] was 90. The “Plant response rating, Ryegrass, Italian” value [9, 15] was 100, the “Ryegrass, Italian plant response rating” value [9, 16] was 100 and the “Ryegrass, Italian plant response rating” value [9, 17] was 100. For the same compound, the “Plant response rating, Ryegrass, Italian” value [9, 18] was 100, the “Plant response rating, Pigweed” value [10, 15] was 100 and the “Pigweed plant response rating” value [10, 16] was 100. The “Pigweed plant response rating” value [10, 17] was 100, the “Plant response rating, Pigweed” value [10, 18] was 100 and the “Plant response rating, Wheat” value [11, 19] was 0. For the same compound, the “Wheat plant response rating” value [11, 20] was 50, the “Plant response rating, Kochia” value [12, 15] was 100 and the “Kochia plant response rating” value [12, 16] was 100. For the same compound, the “Kochia plant response rating” value [12, 17] was 90, the “Plant response rating, Kochia” value [12, 18] was 90 and the “Plant response rating, Blackgrass” value [13, 19] was 70. The “Blackgrass plant response rating” value [13, 20] was 80, the “Plant response rating, Galium” value [14, 19] was 100 and the “Galium plant response rating” value [14, 20] was 100.
With `Cc1n[nH]c(=O)c(-c2cccc3ccccc23)c1OCC(F)F` [Compound 173] the “Plant response rating, Ducksalad” value [1] was 0, the “Plant response rating, Barnyardgrass” value [2] was 0 and the “Plant response rating, Sedge, Umbrella” value [3] was 0. The “Plant response rating, Rice” value [4] was 0, the “Plant response rating, Barnyardgrass” value [5, 21] was 0 and the “Plant response rating, Barnyardgrass” value [5, 22] was 0. For the same compound, the “Plant response rating, Barnyardgrass” value [5, 23] was 0, the “Plant response rating, Barnyardgrass” value [5, 24] was 0 and the “Plant response rating, Foxtail, Giant” value [6, 21] was 0. For the same compound, the “Plant response rating, Foxtail, Giant” value [6, 22] was 0, the “Plant response rating, Foxtail, Giant” value [6, 23] was 0 and the “Plant response rating, Foxtail, Giant” value [6, 24] was 0. For the same compound, the “Plant response rating, Corn” value [7, 25] was 0, the “Plant response rating, Corn” value [7, 26] was 0 and the “Plant response rating, Ragweed” value [8, 21] was 0. For the same compound, the “Plant response rating, Ragweed” value [8, 22] was 0, the “Plant response rating, Ragweed” value [8, 23] was 0 and the “Plant response rating, Ragweed” value [8, 24] was 0. The “Plant response rating, Ryegrass, Italian” value [9, 21] was 0, the “Plant response rating, Ryegrass, Italian” value [9, 22] was 0 and the “Plant response rating, Ryegrass, Italian” value [9, 23] was 0. The “Plant response rating, Ryegrass, Italian” value [9, 24] was 0, the “Plant response rating, Pigweed” value [10, 21] was 0 and the “Plant response rating, Pigweed” value [10, 22] was 0. The “Plant response rating, Pigweed” value [10, 23] was 0, the “Plant response rating, Pigweed” value [10, 24] was 0 and the “Plant response rating, Wheat” value [11, 25] was 0. The “Plant response rating, Wheat” value [11, 26] was 0, the “Plant response rating, Kochia” value [12, 21] was 0 and the “Plant response rating, Kochia” value [12, 22] was 0. The “Plant response rating, Kochia” value [12, 23] was 0, the “Plant response rating, Kochia” value [12, 24] was 0 and the “Plant response rating, Blackgrass” value [13, 25] was 0. The “Plant response rating, Blackgrass” value [13, 26] was 0, the “Plant response rating, Galium” value [14, 25] was 0 and the “Plant response rating, Galium” value [14, 26] was 0.
